Data published in publication PMC8518382, “Identification of a Bromodomain‐like Region in 15‐Lipoxygenase‐1 Explains Its Nuclear Localization” (Angewandte Chemie (International Ed. in English), 2021).
Where “and” joins values, the source holds several entries; their conditions need not be identical. Identical values can stand only once.

Columns and labels:
15-LOX-1 [1] = molecular target: T1, 15-LOX-1 (Homo sapiens, UniProt P16050); test: ABP-based ELISA assay with recombinant 15-LOX-1 (inhibition of Labelox B labeling); format: biochemical; set-up: His-tag (N); made in house; host or cells: E. coli BL21(DE3)
T1 sequence (P16050 1-662): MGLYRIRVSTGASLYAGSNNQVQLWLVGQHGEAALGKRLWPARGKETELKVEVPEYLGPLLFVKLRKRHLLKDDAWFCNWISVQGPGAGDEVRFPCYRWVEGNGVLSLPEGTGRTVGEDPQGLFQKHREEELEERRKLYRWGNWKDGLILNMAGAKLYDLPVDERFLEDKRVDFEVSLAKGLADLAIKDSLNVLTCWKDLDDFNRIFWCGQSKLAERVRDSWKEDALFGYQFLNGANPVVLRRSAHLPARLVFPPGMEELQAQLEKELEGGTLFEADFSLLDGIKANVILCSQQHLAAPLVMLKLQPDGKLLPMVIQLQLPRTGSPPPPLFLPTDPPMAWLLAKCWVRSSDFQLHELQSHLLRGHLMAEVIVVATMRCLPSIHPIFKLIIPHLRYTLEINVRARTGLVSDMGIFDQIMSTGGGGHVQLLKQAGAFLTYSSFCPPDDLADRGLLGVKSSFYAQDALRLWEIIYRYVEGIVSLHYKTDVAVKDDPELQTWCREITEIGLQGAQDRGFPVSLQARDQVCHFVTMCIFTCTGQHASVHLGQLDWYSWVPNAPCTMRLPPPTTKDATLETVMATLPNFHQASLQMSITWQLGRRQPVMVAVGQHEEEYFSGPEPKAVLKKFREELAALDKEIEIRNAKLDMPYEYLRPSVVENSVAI
Description: A549 cell lysate was treated with a serial dilution of the respective inhibitor. Subsequently, samples were labeled by treatment with 1 μM of Labelox B for 1 min. […] Data are mean±s.d., n≥3 independent experiments. […]
1.6. Immunoblotting Analysis […]
1.7. ABPP-based LOX inhibitor specificity validation
A549 cells were lysed by RIPA buffer supplemented with 1x PIC. After sonication and centrifugation, the supernatant was collected, and the protein concentration was determined by a Pierce BCA Protein Assay Kit (Thermo Fisher Scientific, USA). The lysates were then diluted with PBS to 300 ng/µl and stored in -20°C. To label endogenous LOXs with Labelox B under the competition condition, 180 µl diluted lysates were incubated with 200 µl different LOX inhibitor solution (in PBS) with desired concentrations for 18 min to inhibit LOXs activity. Later, 20 µl of a 20 µM Labelox B (in PBS) was added and incubated shortly for 2 min, followed by adding 50 µl of a 0.5 M EDTA to stop the labeling reaction. The reaction mixture was 450 µl in total. Inhibitors and Labelox B were absent in positive and […]
negative control, respectively. To detect the competition labeling of Labelox B among different LOXs, a high-binding 96-well plate (Greiner, #M4561) was coated with 5-LOX (#ab169755, Abcam), 12-LOX […]
(1:500 dilution in PBS) for overnight at 4°C. After washing triply with 0.05%PBST, the plate was blocked with 2% (w/v) BSA in PBST. Subsequently, 100 µl of each reaction mixture was added to the LOX-

15-LOX-1 [2] = molecular target: T1, 15-LOX-1; test: 15-LOX-1 activity assay, UV-absorbance change for linoleic acid conversion; format: biochemical; set-up: His-tag (N); made in house; host or cells: E. coli BL21(DE3); conditions: for IC50: 10 min pre-incubation at RT, 25 µM linoleic acid, absorbance 234 nm; for Hill-slope: linoleic acid conversion assay
Description: In brief, an alkyne‐alcohol was linked to propargyl halide (Cl or Br) using a CuI‐catalyzed Sonogashira cross‐coupling reaction followed by biotinylation of the alcohol using EDCI and HOBt as reagents to provide the desired biotinylated bis‐alkyne probes. The biotinylated bis‐alkynes were subjected to 15‐LOX‐1 binding studies using a 15‐LOX‐1 activity assay based on the UV‐absorbance change for linoleic acid conversion (Figure 1 a). […] Next, we evaluated the effect of the extension of the terminal ethyl substitution of inhibitor 1. […]
empty plasmid was proceed with the same procedure, which lysate was used as the negative control (referred as BL21 control later) in 15-LOX-1 recombinant enzyme inhibition studies.
1.3. Purification of recombinant human 15-LOX-1
The 15-LOX-1 with N-terminal his-tag was produced as described above. After removing the cell debris, the supernatant containing 15-LOX-1 was loaded on a Ni-NTA column (Qiagen, Hilden, Germany) pre-equilibrated with LOX lysis buffer. The column was washed twice with 30 column volume of LOX lysis buffer, and once with 30 column volume of wash buffer (25 mM HEPES, 300 mM NaCl, 25 mM Imidazole, pH 8.0). Later, the 15-LOX-1 was eluted twice with 2 column volume of elution buffer (25 mM HEPES, 300 mM NaCl, 250 mM Imidazole, pH 8.0), followed by desalting with a PD-10 column (Sigma-Aldrich) with LOX storage buffer (25 mM HEPES, 20% Glycerol, pH 7.5). The desalted 15-LOX-1 was further purified and concentrated with Vivaspin Turbo 15 (30.000 MWCO). The protein concentration was determined by Nanodrop spectrophotometry. The 100 μl aliquots of 15-LOX-1 were stored at -20 for further experiments.
15-LOX-1 recombinant enzyme inhibition assay
The 15-LOX-1 inhibition assay has been detailed previously. Briefly, the conversion of linoleic acid to hydroperoxy-(9Z,11E)-octadecadienoic acid (λmax of 234 nm) was used to determine the activity of the 15-LOX-1 enzyme. The conversion rate was the slope of UV-absorbance at 234 nm overtime at the […]
To determine the IC50 of probes, the cell lysate was pre-diluted in LOX assay buffer at a ratio of 1:160. The inhibition assay was done in an F-bottom UV-STAR 96-well plate, in which 50 µl of the diluted enzyme was incubated with 140 µl of a probe diluted in LOX assay buffer for 10 min at room temperature (RT). Later 10 µl of 500 µM linoleic acid dissolved in ethanol was added to the plate to reach a final concentration of 25 µM. The UV-absorbance at 234 nm was determined by a BioTek Synergy H1 plate reader (BioTek, Winooski, VT, USA) . The slope of the 15-LOX-1 sample untreated with the probe was set as 100%, while the slope of the BL21 control sample was set as 0%.
For the determination of enzyme kinetics, a series concentration of linoleic acid was used. Fifty µl of pre-diluted 15-LOX-1 enzyme was incubated with 140 µl of probe solution at a fixed concentration for 10 min at RT. Subsequently, 10 µl of a series concentration of linoleic acid was added to a final concentration ranging from 10 µM to 100 µM. The conversion rate was calculated as the same as […]
described in the IC50 determination assay. Michaelis-Menten plots, Lineweaver-Burk plots, Km, and Vmax, are generated using GraphPad Prism 8.3.0. […]

Row | SMILES | Hill slope (15-LOX-1 [1]) | IC50 (15-LOX-1 [1]; read-out: IC50 for attenuation of Labelox B mediated labeling) | IC50 (15-LOX-1 [2]) | Hill-slope (15-LOX-1 [2]) | Mode of inhibition (Lineweaver–Burk plots) (15-LOX-1 [2]; Km constant, Vmax decreases with inhibitor concentration)
1 | c1ccc2c(c1)SCc1c-2[nH]c2ccccc12 [PD146176] | around 1 | ~15 µM and 15 µM | ~4 µM | 1 | –
2 | O=c1cc(-c2ccccc2)oc2cc(O)c(O)c(O)c12 [Baicalein] | lower than 1 | – | – | much higher | –
3 | CCCCCC#CCC#CCOC(=O)CCCC[C@@H]1SC[C@@H]2NC(=O)N[C@@H]21 [Labelox B (3)] | – | – | 0.62 µM and 0.6 µM | – | non‐competitive LOX inhibition
